The values below come from PMC5766510, “Development of a PET radioligand for potassium channels to image CNS demyelination” (Scientific Reports, 2018).

Like-named read-outs stand apart in the source and are kept apart here. Bounds are passed on as bounds.

Series [1] deals with voltage-gated K^+ channels in demyelinated axons. The class given is in vivo. An excerpt: Thirty minutes post-injection of the radiolabeled drug, the mice were euthanized and their brains dissected without perfusion to prevent washout of the drug. After dissection, the brains were frozen, cut into thin sections and collected on glass slides. The brain slices were then apposed to autoradiography film to reveal the distribution of the drug in the brain at the time of death. After autoradiography, the same brain sections were stained with the myelin-specific dye Luxol fast blue (LFB).
Number of animals per group was determined using statistical power analysis (α = 0.05, power = 0.80). […] The brains were embedded in Optimal Cutting Temperature (Tissue-Tek), frozen in dry ice and stored at −80 °C. Frozen brains were sliced in a cryostat at 20 μm thickness, the sections mounted on Superfrost Plus slides (Fisher) and allowed to dry at room temperature for at least 30 min. Next, the slides were placed in a cassette in front of autoradiography film (Denville scientific) sealed in the dark at −80 °C for 14–21 days. After that time the cassette was allowed to warm up to room temperature and the films developed inside a dark room using a film processor (Konica). The films were then scanned using an EPSON Perfection V750 scanner (Positive film mode, 8-bit grayscale, 1,200 dpi). After digitizing the radiographs, the same slides were stained using Luxol fast blue (LFB) and cresyl violet. For [^18F]3-F-4-AP autoradiography in rats we injected 1–2 μCi per g. After euthanasia, the brains were dissected without perfusion, frozen in dry ice and sliced in a cryostat at −20 °C.
1 min) and left in LFB solution (0.1 g LFB, 100 mL of 95% EtOH, 0.5 mL glacial acetic acid) overnight at 56 °C. Next morning, the slides were rinsed in 95% EtOH and ddH2O to remove the excess of dye, differentiated in lithium carbonate solution (0.05 g in 100 mL) for 30 s, 70% EtOH for 30 s and rinsed in ddH2O. The differentiation steps were repeated until the gray matter was clear and the white matter appeared blue and sharply defined. Afterwards, the slides were counterstained in cresyl violet (0.1 g in 100 mL of ddH2O, 0.1 mL acetic acid) for 30 s. The slides were differentiated in 95 % EtOH for 5 min and dehydrated (100% EtOH, 2x 5 min ea; 100 % xylene, 2 x, 5 min ea) before mounting with permount (Electron Microscopy Sciences). After staining, images of the slides were collected using the CRi Pannoramic Whole Slide Scanner (Perkin Elmer) equipped with a 20x objective.
Image analysis: The histology images were superimposed on the autoradiography images using Photoshop. The histology images were used to precisely outline the corpus callosum, the cortex and a ~1.5 mm-wide area around the brain (background). The autoradiographic signal from each area was quantified. The background signal was subtracted from the all the areas and defined as zero. The signal intensity of the cortex was set as 1.0 and the signal intensity of the corpus callosum was measured relative to the cortex. Color images were created using the 6-shades look up table (LUT) in ImageJ. […]

Series [2] has as its target non-inactivating Shaker channel from D. melanogaster (Drosophila melanogaster, UniProt P08510, DEL6-46). Nature of the series: cell-based. The procedure: See SI for additional details.
(§1) CI95 = [Upper Limit. Lower Limit]; where Upper Limit = 10^(logEC50+s.d.) and Lower Limit = 10^(logEC50−s.d.). […]
exchanging the external solution (top and guard chambers) several times. After application, cells were voltage-clamped at least 5 min at 0mV, then voltage-clamped at -80mV for 1-2 min.
K+ currents were generated by applying series of 50 ms pulses from -70 mV to +40 mV in increments of 10 mV. The effect of the drug was assessed by measuring the relative intensity of the K+ current before and after applying varying drug concentration at a constant voltage (typically +20 mV) and at the end of the test-pulse. Data acquisition and analysis of the traces was performed using Gpatch software (Department of Anesthesiology, University of California, […]
Los Angeles). […]

Series [3] concerns K^+ channels in explanted mouse optic nerves. The series can be described thus: Compound action potential (CAP) of dissected mouse optic nerves. The conditions noted are these: for activity in enhancing the CAP / IC50: dysmyelinated (Shiverer) optic nerves; for IC50: CAP enhancement, given as IC50; for times less potent: from EC50 values, versus 4-AP and 3-F-4-AP. The procedure:
Therefore, we tested the effects of these compounds on the compound action potential (CAP) of dysmyelinated optic nerves from control and Shiverer mice (Fig. 2E).
Optic nerves were dissected from 12–16 week old Shiverer (Mbp^shi/shi) and control mice (Mbp^+/shi and Mbp^+/+). Compound action potentials (CAP) were recorded using suction electrodes as described by Stys et al.[91]. See SI for additional details.
as §1
Dissection of optic nerves: Optic nerves were dissected from 12-16 week old Shiverer (Mbpshi/shi) and control mice (Mbp+/shi and Mbp+/+). Mice were euthanized by CO2 overdose and the optic nerves were quickly dissected between the eyeball and the optic chiasm. The nerves […]
Optic nerve electrophysiology: Compound action potentials (CAP) from dysmyelinated nerves (Shiverer mice, Mbpshi/shi) and myelinated nerves (litermate controls, Mbp+/shi and Mbp+/+) were […]
between two suction electrodes (stimulus and recording electrodes) forming a tight seal on each end. Two additional electrodes were placed in the bath for reference. A supramaximal pulse (250 mV, 20 μs) was applied at the stimulating end of the nerve. The resulting CAP was amplified from the recording electrode using a high impedance low-noise amplifier (EG&G Princeton Applied Research Corporation) sampled at 100 kHz and filtered at 10 kHz. To assess […]
concentrations to the recording chamber after the CAP was allowed to stabilize for 5 min while […]
pulsing repeatedly. After each measurement, the chamber was washed for 5 min (flow 1 […]
mL/min) with oxygenated aCSF. […]
conduction and the temperature was monitored throughout the experiment. CAP recordings were acquired with a SBC6711 board (Innovative Integration) controlled by in-house written software. Analysis of the traces was done using an in-house software. The half-maximal […]
amplitude vs. concentration and fitted to the Hill equation using Origin. […]
Compound action potential of nerve recorded by suction electrode: a theoretical and experimental analysis. […]

Series [4] concerns C57Bl/6 J mice. The series can be described thus: In vivo effects (signs of neuroexcitation) after intraperitoneal injection. The conditions noted are these: mouse, different doses. How it is done:
In this experiment, we injected each drug intraperitoneally at different concentrations into mice and looked for signs of neuroexcitation (Fig. 3B).
10-week-old female C57Bl/6 J mice were given an intraperitoneal injection of the drug under investigation and monitored continuously for 4 h. […] At least 72 h passed between injections to the same mice.

Series [5] is described as follows: in vitro. The note with it: mouse, microsomes.
The mark [6] stands for this setting: relative K^+ current at +20 mV, Hill equation fit, read-out: Half-maximal inhibitory concentration (IC50).

Chain of non-inactivating Shaker channel from D. melanogaster (P08510 other isoform, or with tags, fused parts or gaps DEL6-46): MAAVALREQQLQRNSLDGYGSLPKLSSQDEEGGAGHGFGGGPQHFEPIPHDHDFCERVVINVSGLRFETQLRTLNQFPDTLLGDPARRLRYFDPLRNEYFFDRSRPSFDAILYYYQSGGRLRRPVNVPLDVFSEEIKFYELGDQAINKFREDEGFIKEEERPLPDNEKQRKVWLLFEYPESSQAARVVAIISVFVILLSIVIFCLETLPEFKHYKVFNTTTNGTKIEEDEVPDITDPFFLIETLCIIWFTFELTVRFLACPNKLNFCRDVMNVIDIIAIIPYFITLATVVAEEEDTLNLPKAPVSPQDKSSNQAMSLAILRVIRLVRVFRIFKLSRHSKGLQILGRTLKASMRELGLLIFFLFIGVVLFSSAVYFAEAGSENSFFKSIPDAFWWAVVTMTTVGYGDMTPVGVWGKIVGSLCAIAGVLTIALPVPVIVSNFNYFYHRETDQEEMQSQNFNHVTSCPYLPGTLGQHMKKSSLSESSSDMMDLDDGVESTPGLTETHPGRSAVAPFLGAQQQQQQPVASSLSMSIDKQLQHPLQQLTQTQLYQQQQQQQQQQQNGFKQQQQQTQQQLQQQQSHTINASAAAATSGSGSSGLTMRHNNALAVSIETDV

Regarding `O=[14CH]C[C@@H](O)[C@H](O)[C@H](O)CO` [2-DG, [1-^14C]2-deoxy-D-glucose, reference compound], the “difference in brain distribution between wild type and Shiverer mice” value in series [1] (mouse, in vivo) is reported as “no differences were seen”.

For the compound `Nc1ccnc(F)c1` [2-F-4-AP, 2-fluoro-4-aminopyridine], the IC50 in series [2] (setting [6]) was > 10 mM. In addition, the “activity in enhancing the CAP” value in series [3] was “inactive”. Further, the “signs of neuroexcitation, summary in words relative to 4-AP” value (“signs … in words relative to 4-AP” for short) in series [4] is given as “did not cause any effects at doses up to 20 times greater”.

On to `Nc1ccncc1CCF` [3-FEt-4-AP, 3-fluoroethyl-4-aminopyridine], for which the IC50 in series [2] was > 10 mM. Further, the “activity in enhancing the CAP” value in series [3] was “inactive”.

In the case of `Nc1ccncc1CF` [3-FMe-4-AP, 3-fluoromethyl-4-aminopyridine], the IC50 in series [2] (setting [6]) was determined as 7.45 mM. Besides, in series [3], the IC50 turned out to be 0.386 mM and the times less potent is 4–6 times. Moreover, in series [4], the “signs … in words relative to 4-AP” value was “half as potent as 4-AP”.

For the compound `Nc1ccncc1CO` [3-HOMe-4-AP, 3-hydroxymethyl-4-aminopyridine, reference compound], the IC50 in series [2] was found to be 4.38 mM. In series [3], the IC50 came out at 0.386 mM and the times less potent is 4–6 times. Moreover, the “signs … in words relative to 4-AP” value in series [4] is listed as “did not cause any effects at doses up to 20 times greater”.

In series [5], `CC(C)NCC(O)COc1cccc2ccccc12` (centres unmarked) [Propranolol, propranolol] registered a half-life of 25.6 ± 2.1 min.

As to `Nc1c[14cH]n[14cH]c1F` [[^14C]3-F-4-AP, [2,6-^14C]4-amino-3-fluoropyridine], the “relative autoradiographic signal intensity in corpus callosum” value in series [1] (Shiverer (Mbp^shi/shi) mice, normalized to cortex) was found to be 0.878 ± 0.043. The “increase in signal, Shiverer versus control white matter” value in series [1] (corpus callosum) stood at 29%. In series [1] (wild-type/control mice, normalized to cortex (gray matter = 1.0)), the “relative autoradiographic signal intensity in myelinated white matter” value came out at 0.679 ± 0.046.

On to `Nc1c[14cH]n[14cH]c1` [[^14C]4-AP, [2,6-^14C]4-aminopyridine, reference compound], for which the “autoradiographic signal in the demyelinated area” value in series [1] (LPC-injected mice, 3 days after injection, normalized to cortex) amounted to 0.733 ± 0.047. For the same compound, the “autoradiographic signal in the contralateral control area” value in series [1] (LPC-injected mice, opposite hemisphere, normalized to cortex) turned out to be 0.507 ± 0.070.
